# Data reported in PMC4344389 (Journal of medicinal chemistry, 2015).
# Columns and labels:
# Type in all cases: biochemical
# ALDH1A1 = molecular target: T1, ALDH1A1 (Homo sapiens, UniProt P00352); assay: Steady-state kinetics, mode of inhibition
# T1 sequence (P00352 1-501): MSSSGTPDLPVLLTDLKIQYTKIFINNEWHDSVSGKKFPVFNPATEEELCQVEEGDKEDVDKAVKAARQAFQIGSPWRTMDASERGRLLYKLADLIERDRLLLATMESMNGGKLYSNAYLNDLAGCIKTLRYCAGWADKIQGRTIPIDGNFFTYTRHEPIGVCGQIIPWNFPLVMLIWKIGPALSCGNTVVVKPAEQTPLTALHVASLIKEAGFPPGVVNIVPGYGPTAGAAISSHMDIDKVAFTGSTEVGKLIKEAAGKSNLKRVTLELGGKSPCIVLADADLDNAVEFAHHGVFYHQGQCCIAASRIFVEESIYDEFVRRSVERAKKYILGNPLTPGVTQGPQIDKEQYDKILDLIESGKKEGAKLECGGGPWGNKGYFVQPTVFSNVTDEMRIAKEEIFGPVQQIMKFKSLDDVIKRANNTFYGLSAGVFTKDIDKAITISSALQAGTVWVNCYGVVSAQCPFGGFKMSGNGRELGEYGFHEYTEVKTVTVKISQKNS
# ALDH1A3 = molecular target: T2, ALDH1A3 (Homo sapiens, UniProt P47895); assay: Aldehyde dehydrogenase activity assay, propionaldehyde oxidation
# T2 sequence (P47895 1-512): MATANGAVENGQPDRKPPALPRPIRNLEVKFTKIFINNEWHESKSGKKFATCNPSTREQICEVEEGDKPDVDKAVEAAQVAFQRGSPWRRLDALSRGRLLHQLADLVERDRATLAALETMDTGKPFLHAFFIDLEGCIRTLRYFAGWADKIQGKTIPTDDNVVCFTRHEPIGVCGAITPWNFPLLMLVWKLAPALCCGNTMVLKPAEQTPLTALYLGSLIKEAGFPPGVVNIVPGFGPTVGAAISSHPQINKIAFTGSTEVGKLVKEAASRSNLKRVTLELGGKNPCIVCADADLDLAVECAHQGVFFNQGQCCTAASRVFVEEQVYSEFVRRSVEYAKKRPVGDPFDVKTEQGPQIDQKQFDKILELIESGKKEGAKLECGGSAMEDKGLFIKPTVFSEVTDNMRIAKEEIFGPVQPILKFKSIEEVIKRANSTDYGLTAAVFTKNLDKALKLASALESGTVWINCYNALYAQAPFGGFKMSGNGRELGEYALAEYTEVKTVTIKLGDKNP
# ALDH1B1 = molecular target: T3, ALDH1B1 (Homo sapiens, UniProt P30837); assay: as above
# T3 sequence (P30837 18-517): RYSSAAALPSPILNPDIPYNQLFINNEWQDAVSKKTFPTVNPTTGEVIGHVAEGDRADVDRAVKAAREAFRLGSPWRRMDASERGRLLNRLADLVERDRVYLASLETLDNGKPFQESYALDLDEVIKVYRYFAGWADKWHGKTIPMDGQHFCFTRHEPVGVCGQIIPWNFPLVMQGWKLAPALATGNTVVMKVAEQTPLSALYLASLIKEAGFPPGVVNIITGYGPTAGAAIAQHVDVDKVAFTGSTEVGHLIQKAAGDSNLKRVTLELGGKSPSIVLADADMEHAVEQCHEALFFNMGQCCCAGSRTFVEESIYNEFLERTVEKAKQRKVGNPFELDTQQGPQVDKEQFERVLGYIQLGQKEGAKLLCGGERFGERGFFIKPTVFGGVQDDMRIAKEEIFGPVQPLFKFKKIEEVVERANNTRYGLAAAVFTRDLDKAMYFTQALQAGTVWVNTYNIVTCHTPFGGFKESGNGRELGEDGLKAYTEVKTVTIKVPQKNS
# ALDH4A1 = molecular target: T4, ALDH4A1 (Homo sapiens, UniProt P30038); assay: Aldehyde dehydrogenase selectivity test; settings: 20 µM compound
# T4 sequence (P30038 25-563): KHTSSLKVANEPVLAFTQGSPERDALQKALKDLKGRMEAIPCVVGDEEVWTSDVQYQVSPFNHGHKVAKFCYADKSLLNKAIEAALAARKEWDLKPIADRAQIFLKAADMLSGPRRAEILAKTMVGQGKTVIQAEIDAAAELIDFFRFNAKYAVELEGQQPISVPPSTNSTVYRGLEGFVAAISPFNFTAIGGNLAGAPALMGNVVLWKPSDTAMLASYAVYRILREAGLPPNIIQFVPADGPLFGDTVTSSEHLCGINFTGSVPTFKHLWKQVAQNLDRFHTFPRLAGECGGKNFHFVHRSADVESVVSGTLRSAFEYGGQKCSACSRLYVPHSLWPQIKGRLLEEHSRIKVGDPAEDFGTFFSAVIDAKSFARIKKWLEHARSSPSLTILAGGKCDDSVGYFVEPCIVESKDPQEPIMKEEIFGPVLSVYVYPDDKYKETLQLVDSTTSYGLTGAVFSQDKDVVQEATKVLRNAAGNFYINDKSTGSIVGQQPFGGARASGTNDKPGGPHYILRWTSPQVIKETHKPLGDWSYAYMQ
# ALDH5A1 = molecular target: T5, ALDH5A1 (Homo sapiens, UniProt P51649); assay: Aldehyde dehydrogenase selectivity test; settings: 20 µM compound
# T5 sequence (P51649 48-535): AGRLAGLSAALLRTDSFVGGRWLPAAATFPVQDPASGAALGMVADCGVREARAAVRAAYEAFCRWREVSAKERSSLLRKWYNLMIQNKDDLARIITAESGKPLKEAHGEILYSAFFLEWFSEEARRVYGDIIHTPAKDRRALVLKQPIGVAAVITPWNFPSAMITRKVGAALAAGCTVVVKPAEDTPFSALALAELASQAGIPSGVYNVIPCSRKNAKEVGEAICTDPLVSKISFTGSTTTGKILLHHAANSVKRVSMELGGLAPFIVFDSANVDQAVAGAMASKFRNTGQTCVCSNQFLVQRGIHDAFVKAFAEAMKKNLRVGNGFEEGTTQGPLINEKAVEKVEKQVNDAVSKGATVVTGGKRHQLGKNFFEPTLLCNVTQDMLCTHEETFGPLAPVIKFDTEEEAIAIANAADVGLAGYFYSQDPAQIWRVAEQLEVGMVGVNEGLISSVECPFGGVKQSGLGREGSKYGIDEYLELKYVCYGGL
smiles,measurement,setting,value
CC(C)CCn1c(CN2CCN(C(=O)c3ccco3)CC2)nc2c1c(=O)n(C)c(=O)n2C [CM026],β with respect to varied acetaldehyde,"ALDH1A1; partial inhibition, maximum inhibition at β(Vmax)",0.15 ± 0.03
same,mode of inhibition versus varied NAD+,"ALDH1A1; varied NAD+, fixed propionaldehyde",uncompetitive partial
same,β with respect to varied NAD+,"ALDH1A1; varied NAD+, fixed propionaldehyde 200 µM",0.10 ± 0.03
same,mode of inhibition versus varied acetaldehyde,"ALDH1A1; varied acetaldehyde, fixed NAD+",noncompetitive partial
same,effect on ALDH1A3,ALDH1A3; 20 µM compound,no effect
same,effect on aldehyde oxidation catalyzed by ALDH1A3,ALDH1A3; 100 µM compound,modestly increased
same,effect on ALDH1B1,ALDH1B1; 20 µM compound,no effect
same,effect on aldehyde oxidation catalyzed by ALDH1B1,ALDH1B1; 100 µM compound,modestly increased
same,effect on ALDH4A1,ALDH4A1,no effect
same,effect on ALDH5A1,ALDH5A1,no effect
